According to patent US20240067651A1 (Biohaven Therapeutics Ltd., priority 2019, published 2024):
Values belong to the molecule of their own block, whether it stands above or below them.

Columns and labels:
Plasma Stability = type: in vitro ADME, human
How it was run: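 Parent compound quantified by LC-MS/MS after acetonitrile precipitation, reported as percent of control remaining (triplicate). Incubation: 1 hour, 37° C, fresh human plasma, compound at 1 μM.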

[1] = Caco-2 Permeability Assay; type: in vitro ADME, human; conditions: human
How it was run: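 Bidirectional transport at 37 °C for 90 min, 10 μM donor concentration, with or without Pgp inhibitor, across 21-day Caco-2 monolayers with TEER >600 […] in HEPES-buffered HBSS, pH 7.4. LC-MS/MS of donor and receiver samples gives Papp, B→A/A→B efflux ratio and mass recovery.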

[2] = Stability in Simulated Intestinal Fluid (SIF); type: in vitro ADME; design: key: % parent compound remaining relative to 0-minute sample
How it was run: (§1)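 Each compound is spiked to a final 2 μg/mL into SGF with pepsin (pH 1.2) and into SIF with pancreatin (pH 6.8). Samples shake at 37° C, aliquots are taken between 0 and 60 minutes, precipitated with acetonitrile and analysed by LC-MS/MS. Degradation half-life is derived from the natural-log plot where time points allow.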

[3] = Stability in Simulated Gastric Fluid (SGF); type: in vitro ADME; design: key: % parent compound remaining relative to 0-minute sample
How it was run: as §1

[4] = % remaining at 1 h in human plasma
[5] = Caco-2, pH 7.4, Caco-2 monolayer
[6] = % remaining at 1 h in simulated intestinal fluid
[7] = % remaining at 1 h in simulated gastric fluid
[8] = % remaining at 1 h, human plasma, 1 μM, 37° C.
[9] = Caco-2, pH 7.4, donor 10 μM, 90 minutes, 37° C., direction not given
[10] = % remaining at 1 h, SIF with pancreatin pH 6.8, 2 μg/mL, 37° C.
[11] = % remaining at 1 h, SGF with pepsin pH 1.2, 2 μg/mL, 37° C.
[12] = % remaining at 1 h in human plasma, the 15th table
[13] = Caco-2, pH 7.4, Caco-2 monolayer, the 15th table
[14] = % remaining at 1 h in simulated intestinal fluid, the 15th table
[15] = % remaining at 1 h in simulated gastric fluid, the 15th table
[16] = % @ 1 h (remaining) in human plasma
[17] = % @ 1 h (remaining) in simulated intestinal fluid
[18] = % @ 1 h (remaining) in simulated gastric fluid
[19] = bare number, unit or time not given, the 15th table Examples 204-207
[20] = simulated intestinal fluid, remaining at 1 h
[21] = simulated gastric fluid, remaining at 1 h

Structure (SMILES): CC(C)OCCn1c(=S)[nH]c(=O)c2c1ccn2COC(=O)CCNC(=O)C1CCCN1C(=O)OC(C)C.O=C(O)C(F)(F)F (centres unmarked) [Example 68]
- human Plasma stability (Plasma Stability; [4]): 100%
- Papp at 90 min, 10 µM [1, 5]: 2.26 ×10⁻⁶ cm/s
- SIF [2, 6]: 69% remaining
- SGF [3, 7]: 76% remaining

- human Plasma stability (Plasma Stability; [8]): 100%
- Papp at 90 min, 10 µM [1, 9]: 0.094 ×10⁻⁶ cm/s
- SIF [2, 10]: 96%
- SGF [3, 11]: 94%
Structure (SMILES): CC(C)OCCn1c(=S)[nH]c(=O)c2c1ccn2COC(=O)N[C@H](C(=O)O)C(C)C [Example 109, (2S)-3-methyl-2-{[({4-oxo-1-[2-(propan-2-yloxy)ethyl]-2-sulfanylidene-1H,2H,3H,4H,5H-pyrrolo[3,2-d]pyrimidin-5-yl}methoxy)carbonyl]amino}butanoic acid]

- human Plasma stability (Plasma Stability; human plasma, at 1 h): 0% remaining
- Papp at 90 min, 10 µM [1, 5]: 3.63 ×10⁻⁶ cm/s
- SIF ([2]; simulated intestinal fluid, at 1 h): 40% remaining
- SGF ([3]; simulated gastric fluid, at 1 h): 100% remaining
Structure (SMILES): CC(C)OCCn1c(=S)[nH]c(=O)c2c1ccn2C(=O)OC(C)C [Example 231]

Structure (SMILES): CC(C)OCCn1c(SCOC(=O)[C@H](Cc2ccccc2)NC(=O)OC(C)(C)C)nc(=O)c2c1ccn2COC(=O)[C@H](Cc1ccccc1)NC(=O)OC(C)(C)C [Example 303, {[5-({[(2S)-2-{[(tert-butoxy)carbonyl]amino}-3-phenylpropanoyl]oxy}methyl)-4-oxo-1-[2-(propan-2-yloxy)ethyl]-1H,4H,5H-pyrrolo[3,2-d]pyrimidin-2-yl]sulfanyl}methyl (2S)-2-{[(tert-butoxy)carbonyl]amino}-3-phenylpropanoate]
- human Plasma stability (Plasma Stability; % remaining @ 1 h): 28% @ 1 h
- Papp at 90 min, 10 µM ([1]; Caco-2, pH 7.4): 5.56 ×10⁻⁶ cm/s
- SIF ([2]; % remaining @ 1 h): 1% @ 1 h
- SGF ([3]; % remaining @ 1 h): 46% @ 1 h

Structure (SMILES): CC(C)OCCn1c(=S)[nH]c(=O)c2c1ccn2COC(=O)CCNC(=O)[C@H](Cc1ccc(O)cc1)NC(=O)OC(C)(C)C.O=C(O)C(F)(F)F [Example 46]
- human Plasma stability (Plasma Stability; [4]): 63% remaining
- Papp at 90 min, 10 µM [1, 5]: 1.12 ×10⁻⁶ cm/s
- SIF [2, 6]: 100%
- SGF [3, 7]: 98% remaining

- human Plasma stability (Plasma Stability; [8]): 100%
- Papp at 90 min, 10 µM [1, 9]: 0.488 ×10⁻⁶ cm/s
- SIF [2, 10]: 65%
- SGF [3, 11]: 99%
Structure (SMILES): COCCOCCN(C)C(=O)OCSc1nc(=O)c2c(ccn2COC(=O)N(C)CCOCCOC)n1CCOC(C)C [Example 89, (2-{[({[2-(2-methoxyethoxy)ethyl](methyl)carbamoyl}oxy)methyl]sulfanyl}-4-oxo-1-[2-(propan-2-yloxy)ethyl]-1H,4H,5H-pyrrolo[3,2-d]pyrimidin-5-yl)methyl N-[2-(2-methoxyethoxy)ethyl]-N-methylcarbamate]

- human Plasma stability (Plasma Stability; [12]): 99% @ 1 h
- Papp at 90 min, 10 µM [1, 13]: 11.7 ×10⁻⁶ cm/s
- SIF [2, 14]: 97% @ 1 h
- SGF [3, 15]: 98% @ 1 h
Structure (SMILES): CC(C)CNC(=O)OCSc1nc(=O)c2c(ccn2COC(=O)NCC(C)C)n1CCOC(C)C [Example 188]

- human Plasma stability (Plasma Stability; % remaining at 1 h in human plasma, the 17th table): 77% remaining
- Papp at 90 min, 10 µM ([1]; Caco-2, pH 7.4, Caco-2 monolayer, the 17th table): 1.63 ×10⁻⁶ cm/s
- SIF ([2]; % remaining at 1 h in simulated intestinal fluid, the 17th table): 2% remaining
- SGF ([3]; % remaining at 1 h in simulated gastric fluid, the 17th table): 80% remaining
Structure (SMILES): CCCCCCOC(=O)OCSc1nc(=O)c2c(ccn2COC(=O)OCCCCCC)n1CCOC(C)C [Example 214]

Structure (SMILES): CC(C)OCCn1c(=S)[nH]c(=O)c2c1ccn2COC(=O)CCCCNC(=O)[C@H](Cc1ccc(O)cc1)NC(=O)OC(C)(C)C.O=C(O)C(F)(F)F [Example 45]
- human Plasma stability (Plasma Stability; [4]): 66% remaining
- Papp at 90 min, 10 µM ([1]; pH 7.4, Caco-2 monolayer): 2.28 ×10⁻⁶ cm/s
- SIF [2, 6]: 89% remaining
- SGF [3, 7]: 100%

Structure (SMILES): CC(C)OCCn1c(SCOC(=O)N(C)CCc2ccccc2)nc(=O)c2[nH]ccc21.O=C(O)C(F)(F)F [Example 175]
- human Plasma stability (Plasma Stability; [16]): 95% @ 1 h
- Papp at 90 min, 10 µM [1, 5]: 30.9 ×10⁻⁶ cm/s
- SIF [2, 17]: 92% @ 1 h
- SGF [3, 18]: 99% @ 1 h

Structure (SMILES): CC(C)OCCn1c(=S)[nH]c(=O)c2c1ccn2COC(=O)CCCCNC(=O)[C@H](Cc1ccccc1)NC(=O)OCC1c2ccccc2-c2ccccc21.O=C(O)C(F)(F)F [Example 22]
- human Plasma stability (Plasma Stability; [4]): 74% remaining
- Papp at 90 min, 10 µM [1, 5]: 0.647 ×10⁻⁶ cm/s
- SIF [2, 6]: 90% remaining
- SGF [3, 7]: 87% remaining

- human Plasma stability (Plasma Stability; [12]): 16% @ 1 h
- Papp at 90 min, 10 µM [1, 13]: 1.08 ×10⁻⁶ cm/s
- SIF [2, 14]: 82% @ 1 h
- SGF [3, 15]: 15% @ 1 h
Structure (SMILES): CC(C)OCCn1c(=S)[nH]c(=O)c2c1ccn2C(=O)OC(C)(C)C [Example 191]

- human Plasma stability (Plasma Stability; [12]): 97% remaining
- Papp at 90 min, 10 µM [1, 13]: 3.84 ×10⁻⁶ cm/s
- SIF [2, 14]: 50% remaining
- SGF [3, 15]: 100% remaining
Structure (SMILES): CC(C)OCCn1c(SCOC(=O)NCc2ccccc2)nc(=O)c2[nH]ccc21 [Example 192]

Structure (SMILES): CC(C)OCCn1c(=S)[nH]c(=O)c2c1ccn2COC(=O)OCCOCCN.O=C(O)C(F)(F)F [Example 123]
- human Plasma stability (Plasma Stability; [4]): 65% remaining
- Papp at 90 min, 10 µM [1, 5]: 2.44 ×10⁻⁶ cm/s
- SIF [2, 6]: 1% remaining at
- SGF [3, 7]: 97% remaining

Structure (SMILES): C=CCN(C)C(=O)OCSc1nc(=O)c2[nH]ccc2n1CCOC(C)C.O=C(O)C(F)(F)F [Example 177]
- human Plasma stability (Plasma Stability; [16]): 99% @ 1 h
- Papp at 90 min, 10 µM [1, 5]: 15.2 ×10⁻⁶ cm/s
- SIF [2, 17]: 89% @ 1 h
- SGF [3, 18]: 99% @ 1 h

- human Plasma stability (Plasma Stability; [8]): 76%
- Papp at 90 min, 10 µM [1, 9]: 0.4 ×10⁻⁶ cm/s
- SIF [2, 10]: 94%
- SGF [3, 11]: 100%
Structure (SMILES): CC(C)OCCn1c(=S)[nH]c(=O)c2c1ccn2COC(=O)CCCCNC(=O)[C@@H](N)C(C)C [Example 12, Trifluoroacetic acid {4-oxo-1-[2-(propan-2-yloxy)ethyl]-2-sulfanylidene-1H,2H,3H,4H,5H-pyrrolo[3,2-d]pyrimidin-5-yl}methyl 5-[(2S)-2-amino-3-methylbutanamido]pentanoate]

- human Plasma stability (Plasma Stability; [12]): 97% remaining
- Papp at 90 min, 10 µM [1, 13]: 42.9 ×10⁻⁶ cm/s
- SIF [2, 14]: 59% remaining
- SGF [3, 15]: 99% remaining
Structure (SMILES): CCCCNC(=O)OCSc1nc(=O)c2c(ccn2C(=O)NCCCC)n1CCOC(C)C [Example 194]

- human Plasma stability (Plasma Stability; [12]): 99% remaining
- Papp at 90 min, 10 µM [1, 13]: 0.138 ×10⁻⁶ cm/s
- SIF [2, 19]: 1
- SGF [3, 19]: 91
Structure (SMILES): CCCCCCCCOC(=O)OCSc1nc(=O)c2[nH]ccc2n1CCOC(C)C [Example 206]

Structure (SMILES): CC(C)OCCn1c(=S)[nH]c(=O)c2c1ccn2COC(=O)CCCCNC(=O)[C@@H]1CCC(=O)N1C.O=C(O)C(F)(F)F [Example 63]
- human Plasma stability (Plasma Stability; [4]): 0% remaining
- Papp at 90 min, 10 µM [1, 5]: 0.2 ×10⁻⁶ cm/s
- SIF [2, 6]: 98% remaining
- SGF [3, 7]: 97% remaining

Structure (SMILES): CC(C)OCCn1c(=S)[nH]c(=O)c2c1ccn2COC(=O)CCCOC(=O)[C@H](NC(=O)OC(C)(C)C)C(C)C [Example 355, 4-oxo-4-({4-oxo-1-[2-(propan-2-yloxy)ethyl]-2-sulfanylidene-1H,2H,3H,4H,5H-pyrrolo[3,2-d]pyrimidin-5-yl}methoxy)butyl (2R)-2-{[(tert-butoxy)carbonyl]amino}-3-methylbutanoate]
- human Plasma stability (Plasma Stability; human plasma, remaining at 1 h): 43% remaining
- Papp at 90 min, 10 µM [1, 5]: 2.16 ×10⁻⁶ cm/s
- SIF [2, 20]: 100% remaining
- SGF [3, 21]: 99% remaining

- human Plasma stability (Plasma Stability; [8]): 1% remaining
- Papp at 90 min, 10 µM [1, 9]: 14.2 ×10⁻⁶ cm/s
- SIF [2, 10]: 99% remaining
- SGF [3, 11]: 98% remaining
Structure (SMILES): CC(C)OCCn1c(SCOC(=O)OC(C)C)nc(=O)c2c1ccn2COC(=O)OC(C)C [Example 91, {4-oxo-2-[{{[(propan-2-yloxy)carbonyl]oxy}methyl)sulfanyl]-1-[2-(propan-2-yloxy)ethyl]-1H,4H,5H-pyrrolo[3,2-d]pyrimidin-5-yl}methyl propan-2-yl carbonate]

Structure (SMILES): CC(C)C[C@H](N)C(=O)OCn1ccc2c1c(=O)[nH]c(=S)n2CCOC(C)C.O=C(O)C(F)(F)F [Example 320, trifluoroacetic acid {4-oxo-1-[2-(propan-2-yloxy)ethyl]-2-sulfanylidene-1H,2H,3H,4H,5H-pyrrolo[3,2-d]pyrimidin-5-yl}methyl (2S)-2-amino-4-methylpentanoate]
- human Plasma stability (Plasma Stability; % remaining @ 1 h): 98%@ 1 h
- Papp at 90 min, 10 µM ([1]; Caco-2, pH 7.4): < 0.259 ×10⁻⁶ cm/s
- SIF ([2]; % remaining @ 1 h): 42%@ 1 h
- SGF ([3]; % remaining @ 1 h): 48%@ 1 h

Structure (SMILES): CC(C)OCCn1c(SCOC(=O)OCCOCCNC(=O)OC(C)(C)C)nc(=O)c2[nH]ccc21 [Example 369, 2-{[{{[2-(2-{[(tert-butoxy)carbonyl]amino}ethoxy)eth-oxy]carbonyl}oxy)methyl]sulfanyl}-1-[2-(propan-2-yloxy)ethyl]-1H,4H,5H-pyrrolo[3,2-d]pyrimidin-4-one]
- human Plasma stability (Plasma Stability; human plasma, remaining at 1 h): 1% remaining
- Papp at 90 min, 10 µM [1, 5]: < 0.107 ×10⁻⁶ cm/s
- SIF [2, 20]: 1% remaining
- SGF [3, 21]: 89% remaining
